According to PubChem BioAssay AID256 (DTP/NCI, 2004):
Where “and” joins values, the source holds several entries; their conditions need not be identical. Identical values can stand only once. Toxic doses and inconclusive results are not listed. Rule for the calls: active = survival T/C of 150% or more; inactive = T/C below 125% in these data.

System: CD2F1 mice, L1210 leukemia ip, survival T/C
Test: NCI In Vivo Anticancer Drug Screen. Data for tumor model L1210 Leukemia (intraperitoneal) in CD2F1 (CDF1) mice
Details: endpoint: mean survival time, higher = longer survival
Summary of the method: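 Mice carrying a transplanted tumor received test compound or vehicle alone. The value is the measurement in the treated group divided by that in the vehicle-treated control group.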

[1] = dose: 25.0 mg/kg/injection, schedule: Q01DX009 (ip), vehicle: saline with Tween-80
[2] = dose: 100.0 mg/kg/injection, schedule: Q01DX009 (ip), vehicle: saline with Tween-80
[3] = dose: 200.0 mg/kg/injection, schedule: Q01DX009 (ip), vehicle: saline with Tween-80
[4] = dose: 100.0 mg/kg/injection, schedule: Q01DX001 (ip), vehicle: saline
[5] = dose: 400.0 mg/kg/injection, schedule: Q01DX001 (ip), vehicle: saline
[6] = dose: 100.0 mg/kg/injection, schedule: Q01DX009 (ip), vehicle: saline
[7] = dose: 100.0 mg/kg/injection, schedule: Q04DX003 (ip), vehicle: saline
[8] = dose: 200.0 mg/kg/injection, schedule: Q04DX003 (ip), vehicle: saline
[9] = dose: 400.0 mg/kg/injection, schedule: Q04DX003 (ip), vehicle: saline

Measured: T/C

CO[C@H]1C[C@@H]2CC[C@@H](C)[C@@](O)(O2)C(=O)C(=O)N2CCCC[C@H]2C(=O)O[C@H]([C@H](C)C[C@@H]2CC[C@@H](O)[C@H](OC)C2)CC(=O)[C@H](C)C=C(C)[C@@H](O)[C@@H](OC)C(=O)[C@H](C)C[C@H](C)/C=C/C=C/C=C1C
inactive: dose: 12.5 mg/kg/injection, schedule: Q01DX009 (ip), vehicle: saline with Tween-80 107 % of control | [1] 113 % of control | dose: 50.0 mg/kg/injection, schedule: Q01DX009 (ip), vehicle: saline with Tween-80 114 % of control | dose: 100.0 mg/kg/injection, schedule: Q01DX001 (ip), vehicle: saline with Tween-80 113 % of control | [2] 112 % of control | dose: 200.0 mg/kg/injection, schedule: Q01DX001 (ip), vehicle: saline with Tween-80 111 % of control | [3] 104 % of control | dose: 400.0 mg/kg/injection, schedule: Q01DX001 (ip), vehicle: saline with Tween-80 120 % of control

CC[P+](C)(CC)c1cccc(OC(=O)NC)c1
inactive: dose: 0.05 mg/kg/injection, schedule: Q01DX001 (ip), vehicle: saline 96 % of control | dose: 0.1 mg/kg/injection, schedule: Q01DX001 (ip), vehicle: saline 102 % of control | dose: 0.2 mg/kg/injection, schedule: Q01DX001 (ip), vehicle: saline 104 % of control

NC1(C(=O)O)CCCC1.[Zn+2]
inactive: [4] 100 % of control | [5] 120 % of control

CN1CCC(C#N)(c2ccccn2)CC1
inactive: dose: 5.0 mg/kg/injection, schedule: Q01DX009 (ip), vehicle: saline with Tween-80 95 % of control | dose: 5.0 mg/kg/injection, schedule: Q01DX009 (ip), vehicle: saline 103 % of control | dose: 10.0 mg/kg/injection, schedule: Q01DX009 (ip), vehicle: saline with Tween-80 91 % of control | dose: 10.0 mg/kg/injection, schedule: Q01DX009 (ip), vehicle: saline 106 % of control | dose: 20.0 mg/kg/injection, schedule: Q01DX009 (ip), vehicle: saline 97 % of control

O=C1OC(C(O)CO)C(O)=C1O (centres undefined)
inactive: [4] 101 % of control | [6] 93 % of control and 108 % of control | dose: 100.0 mg/kg/injection, schedule: Q04DX002 (ip), vehicle: saline 109 % of control and 112 % of control | [7] 106 % of control | dose: 200.0 mg/kg/injection, schedule: Q01DX001 (ip), vehicle: saline 101 % of control | dose: 200.0 mg/kg/injection, schedule: Q01DX009 (ip), vehicle: saline 86 % of control and 102 % of control | dose: 200.0 mg/kg/injection, schedule: Q04DX002 (ip), vehicle: saline 97 % of control and 104 % of control | [8] 98 % of control | [5] 106 % of control | dose: 400.0 mg/kg/injection, schedule: Q01DX009 (ip), vehicle: saline 89 % of control and 96 % of control | dose: 400.0 mg/kg/injection, schedule: Q04DX002 (ip), vehicle: saline 96 % of control and 102 % of control | [9] 98 % of control

O=[N+]([O-])c1cccc(S(=O)(=O)O)c1.[Fe]
inactive: dose: 50.0 mg/kg/injection, schedule: Q01DX009 (ip), vehicle: saline 103 % of control | [6] 91 % of control

CC12CCCCC1=CC(=O)CC2 (centres undefined)
inactive: [2] 97 % of control | dose: 100.0 mg/kg/injection, schedule: Q04DX002 (ip), vehicle: saline with Tween-80 96 % of control | [3] 102 % of control | dose: 200.0 mg/kg/injection, schedule: Q04DX002 (ip), vehicle: saline with Tween-80 112 % of control | dose: 400.0 mg/kg/injection, schedule: Q04DX002 (ip), vehicle: saline with Tween-80 104 % of control

Nc1ccccc1N
inactive: [1] 95 % of control | [3] 93 % of control

ClCc1c2ccccc2cc2ccccc12
inactive: dose: 25.0 mg/kg/injection, schedule: Q04DX002 (ip), vehicle: saline with Tween-80 104 % of control

COC(=O)c1cccc2c(Br)cc3ccccc3c12
inactive: dose: 100.0 mg/kg/injection, schedule: Q01DX009 (ip), vehicle: Klucel (hydroxypropylcellulose) (HPC) 98 % of control | dose: 100.0 mg/kg/injection, schedule: Q04DX003 (ip), vehicle: Klucel (hydroxypropylcellulose) (HPC) 102 % of control | dose: 200.0 mg/kg/injection, schedule: Q01DX009 (ip), vehicle: Klucel (hydroxypropylcellulose) (HPC) 103 % of control | dose: 200.0 mg/kg/injection, schedule: Q04DX003 (ip), vehicle: Klucel (hydroxypropylcellulose) (HPC) 98 % of control | dose: 400.0 mg/kg/injection, schedule: Q01DX009 (ip), vehicle: Klucel (hydroxypropylcellulose) (HPC) 110 % of control | dose: 400.0 mg/kg/injection, schedule: Q04DX003 (ip), vehicle: Klucel (hydroxypropylcellulose) (HPC) 108 % of control

CN(C)C(=O)c1ccc[n+](CC(=O)Nc2ccccc2)c1
inactive: [7] 103 % of control | [8] 101 % of control | [9] 103 % of control
